Laboratory results published in the supplement of paper PMC12076712.

How the values were obtained:
[1] = target: T1, NEK9 (UniProt Q8TD19); assay: pIC50, competition of probe 3 labelling in live cells; details: cell material: Jurkat cells
T1 sequence (whole entry): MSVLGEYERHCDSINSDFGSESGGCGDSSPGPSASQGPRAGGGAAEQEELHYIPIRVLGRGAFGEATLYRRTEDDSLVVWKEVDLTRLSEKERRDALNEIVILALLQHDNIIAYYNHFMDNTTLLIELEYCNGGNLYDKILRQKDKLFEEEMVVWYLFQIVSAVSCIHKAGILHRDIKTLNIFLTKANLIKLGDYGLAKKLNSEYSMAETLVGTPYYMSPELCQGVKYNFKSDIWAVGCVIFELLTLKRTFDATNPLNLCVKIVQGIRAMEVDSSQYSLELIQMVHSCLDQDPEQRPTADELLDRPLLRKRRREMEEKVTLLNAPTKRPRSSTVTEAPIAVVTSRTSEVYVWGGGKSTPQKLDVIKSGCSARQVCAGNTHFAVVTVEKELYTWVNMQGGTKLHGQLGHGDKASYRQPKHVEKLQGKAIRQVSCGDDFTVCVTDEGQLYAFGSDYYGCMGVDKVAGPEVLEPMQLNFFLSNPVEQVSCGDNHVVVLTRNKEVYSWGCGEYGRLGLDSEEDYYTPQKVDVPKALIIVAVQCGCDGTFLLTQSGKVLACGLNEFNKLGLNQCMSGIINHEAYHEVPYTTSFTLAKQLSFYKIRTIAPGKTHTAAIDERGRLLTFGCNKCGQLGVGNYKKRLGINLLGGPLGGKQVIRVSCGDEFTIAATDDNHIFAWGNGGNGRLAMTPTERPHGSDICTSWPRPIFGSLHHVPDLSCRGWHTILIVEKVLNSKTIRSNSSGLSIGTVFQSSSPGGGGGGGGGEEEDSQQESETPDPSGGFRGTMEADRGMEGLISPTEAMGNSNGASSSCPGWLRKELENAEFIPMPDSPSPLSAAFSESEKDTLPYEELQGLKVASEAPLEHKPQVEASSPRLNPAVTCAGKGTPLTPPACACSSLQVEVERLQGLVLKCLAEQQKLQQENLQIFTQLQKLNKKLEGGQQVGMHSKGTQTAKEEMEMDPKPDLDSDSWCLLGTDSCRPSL

[2] = target: MAPK12 (UniProt P53778); assay: as above; details: cell material: Jurkat cells
[3] = target: T2, ITK (UniProt Q08881); assay: as above; details: cell material: Jurkat cells
T2 sequence (whole entry): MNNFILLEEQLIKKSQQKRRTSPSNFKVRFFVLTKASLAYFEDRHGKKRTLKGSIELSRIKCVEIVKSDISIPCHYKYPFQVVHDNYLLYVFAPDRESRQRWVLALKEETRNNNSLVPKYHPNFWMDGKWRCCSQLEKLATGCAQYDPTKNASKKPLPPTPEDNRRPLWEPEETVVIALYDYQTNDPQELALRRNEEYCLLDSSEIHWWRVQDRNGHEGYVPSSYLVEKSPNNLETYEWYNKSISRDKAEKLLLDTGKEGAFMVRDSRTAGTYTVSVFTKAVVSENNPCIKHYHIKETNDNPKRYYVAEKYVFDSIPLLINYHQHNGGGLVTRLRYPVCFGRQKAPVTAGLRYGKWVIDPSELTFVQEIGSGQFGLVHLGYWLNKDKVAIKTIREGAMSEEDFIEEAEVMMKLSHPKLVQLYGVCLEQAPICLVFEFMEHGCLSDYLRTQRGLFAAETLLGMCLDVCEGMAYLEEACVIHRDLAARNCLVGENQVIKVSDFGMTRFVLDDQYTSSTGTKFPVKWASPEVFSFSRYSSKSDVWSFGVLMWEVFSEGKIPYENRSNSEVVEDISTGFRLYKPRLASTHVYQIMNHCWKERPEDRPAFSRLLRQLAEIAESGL

[4] = target: UniProt O96017; assay: as above; details: cell material: Jurkat cells
[5] = target: T3, CDKL5 (UniProt O76039); assay: as above; details: cell material: Jurkat cells
T3 sequence (whole entry): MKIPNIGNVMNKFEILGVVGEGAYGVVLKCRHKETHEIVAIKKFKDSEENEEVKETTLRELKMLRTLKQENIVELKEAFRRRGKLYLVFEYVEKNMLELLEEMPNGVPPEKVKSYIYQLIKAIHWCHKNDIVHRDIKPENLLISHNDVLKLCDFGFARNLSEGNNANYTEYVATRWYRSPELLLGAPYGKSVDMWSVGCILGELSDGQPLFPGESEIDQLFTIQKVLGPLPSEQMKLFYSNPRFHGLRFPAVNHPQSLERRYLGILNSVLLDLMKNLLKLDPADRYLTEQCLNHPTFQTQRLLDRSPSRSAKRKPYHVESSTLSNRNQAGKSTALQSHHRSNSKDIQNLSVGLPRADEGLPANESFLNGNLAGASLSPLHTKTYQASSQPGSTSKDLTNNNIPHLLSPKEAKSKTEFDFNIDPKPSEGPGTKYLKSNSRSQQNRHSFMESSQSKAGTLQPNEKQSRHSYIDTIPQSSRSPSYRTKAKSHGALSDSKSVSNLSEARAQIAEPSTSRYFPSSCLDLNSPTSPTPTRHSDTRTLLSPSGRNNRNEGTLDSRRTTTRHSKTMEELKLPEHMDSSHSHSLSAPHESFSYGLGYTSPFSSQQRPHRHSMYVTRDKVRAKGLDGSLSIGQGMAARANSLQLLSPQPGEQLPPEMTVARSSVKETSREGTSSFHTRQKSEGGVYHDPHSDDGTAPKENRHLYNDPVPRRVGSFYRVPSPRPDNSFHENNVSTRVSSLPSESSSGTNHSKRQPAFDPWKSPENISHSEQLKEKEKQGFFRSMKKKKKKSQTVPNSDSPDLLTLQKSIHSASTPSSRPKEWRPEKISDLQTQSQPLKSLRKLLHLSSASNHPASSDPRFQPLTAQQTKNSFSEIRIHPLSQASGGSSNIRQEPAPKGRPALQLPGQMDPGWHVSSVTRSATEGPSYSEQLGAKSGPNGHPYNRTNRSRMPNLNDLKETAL

[6] = target: GSTM1 (UniProt P09488); assay: as above; details: cell material: Jurkat cells
[7] = target: RIPK3 (UniProt Q9Y572); assay: pIC50, kinobeads binding competition
Procedure, shortened: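 Fold changes relative to vehicle, from biological duplicates, were fitted with logistic dose-response models in the R drc package to give pIC50. These fold changes came from TMT10 LC-MS/MS quantification of digested Kinobeads-bound proteins. Compound was applied at nine concentrations (top 30 μM) either to live Jurkat cells in 1:4 steps for 60 min at 37 °C before lysis, or to Jurkat lysate or a 1:1:1:1 HEK293/K-562/HepG2/placenta lysate mix in 1:5 steps for 60 min at 4 °C.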

RIPK3, sequence (Q9Y572 whole entry, looked up): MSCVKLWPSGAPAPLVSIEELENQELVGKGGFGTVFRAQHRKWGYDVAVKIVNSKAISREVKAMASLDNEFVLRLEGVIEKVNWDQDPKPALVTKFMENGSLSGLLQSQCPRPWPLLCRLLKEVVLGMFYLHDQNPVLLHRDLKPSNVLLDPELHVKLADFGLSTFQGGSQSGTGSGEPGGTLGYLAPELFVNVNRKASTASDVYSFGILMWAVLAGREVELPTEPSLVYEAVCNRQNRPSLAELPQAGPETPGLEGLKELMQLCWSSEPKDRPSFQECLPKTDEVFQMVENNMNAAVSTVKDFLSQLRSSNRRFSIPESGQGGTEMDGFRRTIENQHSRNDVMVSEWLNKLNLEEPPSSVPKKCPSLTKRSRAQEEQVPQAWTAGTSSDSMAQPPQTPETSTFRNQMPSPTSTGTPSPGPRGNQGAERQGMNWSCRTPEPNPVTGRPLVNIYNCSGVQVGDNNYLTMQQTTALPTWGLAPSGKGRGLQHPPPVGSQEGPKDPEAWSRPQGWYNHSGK
UniProt O96017, sequence (O96017 whole entry): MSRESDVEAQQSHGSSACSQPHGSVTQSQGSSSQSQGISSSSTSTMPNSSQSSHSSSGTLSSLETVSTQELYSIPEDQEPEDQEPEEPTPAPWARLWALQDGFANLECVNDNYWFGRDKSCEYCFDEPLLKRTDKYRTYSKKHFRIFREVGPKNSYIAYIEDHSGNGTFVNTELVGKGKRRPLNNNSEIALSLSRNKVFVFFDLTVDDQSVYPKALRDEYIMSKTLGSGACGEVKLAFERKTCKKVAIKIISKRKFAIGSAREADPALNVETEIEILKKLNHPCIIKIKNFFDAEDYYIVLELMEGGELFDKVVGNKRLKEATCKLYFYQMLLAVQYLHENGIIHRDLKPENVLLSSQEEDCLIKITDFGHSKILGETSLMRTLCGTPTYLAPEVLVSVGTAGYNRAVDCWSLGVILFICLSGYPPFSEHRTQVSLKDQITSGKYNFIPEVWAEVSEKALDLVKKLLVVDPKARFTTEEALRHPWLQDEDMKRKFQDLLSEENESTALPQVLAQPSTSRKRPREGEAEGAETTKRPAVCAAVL
MAPK12, sequence (P53778 whole entry): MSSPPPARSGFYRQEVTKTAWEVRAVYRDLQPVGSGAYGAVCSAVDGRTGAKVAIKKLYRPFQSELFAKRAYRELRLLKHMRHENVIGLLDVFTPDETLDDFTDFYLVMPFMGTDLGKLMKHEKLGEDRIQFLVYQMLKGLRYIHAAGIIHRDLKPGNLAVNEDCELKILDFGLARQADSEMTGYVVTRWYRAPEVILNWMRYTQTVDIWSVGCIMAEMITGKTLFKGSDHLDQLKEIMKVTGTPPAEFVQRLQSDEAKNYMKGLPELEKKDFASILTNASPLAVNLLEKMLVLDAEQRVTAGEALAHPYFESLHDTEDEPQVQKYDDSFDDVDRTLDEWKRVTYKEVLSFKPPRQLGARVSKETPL
GSTM1, sequence (P09488 whole entry): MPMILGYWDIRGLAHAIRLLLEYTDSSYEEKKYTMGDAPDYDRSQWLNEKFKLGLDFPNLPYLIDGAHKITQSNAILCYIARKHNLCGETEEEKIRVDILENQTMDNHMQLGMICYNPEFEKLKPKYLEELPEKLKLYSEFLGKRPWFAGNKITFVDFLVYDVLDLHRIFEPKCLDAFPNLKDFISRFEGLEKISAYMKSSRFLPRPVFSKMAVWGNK

Row | pIC50 [2] | pIC50 [3] | pIC50 [4] | pIC50 [5] | pIC50 [6] | SMILES | pIC50 [1] | pIC50 ([7]; cell material: Jurkat cells) | pIC50 ([7]; cell material: Jurkat lysate)
1 | < 4.52 | < 4.52 | < 4.52 | 6.12 | < 4.52 | CCc1cnn2c(NCc3ccc[n+]([O-])c3)cc(N3CCCC[C@H]3CCO)nc12 [dinaciclib] | < 4.52 |  | 
2 |  |  |  |  |  | C#CCNC(=O)c1cc(Nc2cc(C3CC3)[nH]n2)nc(N2CCN(Cc3ccc(S(=O)(=O)F)cc3)CC2)n1 |  | 4.85 | 4.67
3 |  |  |  |  |  | O=C(NCCNC(=O)c1cc(Nc2cc(C3CC3)[nH]n2)nc(N2CCN(Cc3ccc(S(=O)(=O)F)cc3)CC2)n1)OC1CC/C=C/CCC1 (stereo not given) |  |  | < 4.52
4 | 4.64 | < 4.52 | < 4.52 | < 4.52 | < 4.52 | CC#CC(=O)Nc1ccc2ncnc(Nc3cccc(Br)c3)c2c1 [EKI-785] | < 4.52 |  | 
